Series [1] is described as follows: physchem. The series is classed as physicochemical. How it is done:
Fluorescence measurements were recorded with a Varian Cary Eclipse fluorescence spectrophotometer. A solid sample/cuvette holder designed for front-face measurements was used to measure sensor patches that were fixed to the inside front wall of a PMMA disposable cuvette. Excitation light was fixed at an angle of incidence of 30°. Solutions were measured in regular 90° configuration. Cuvettes containing sensor patches were equilibrated in buffered saline solutions ranging in pH from 5 to 10. Uncorrected excitation and emission spectra were recorded for each sample. For comparison, solutions of DHDS and HPTS were also prepared and tested at the same pH values.
FIG. 3 depicts the calibration curves of excitation intensity ratio versus pH for DHDS solution, HPTS solution and the immobilized HPDS. Sensors comprising HDPS-PEG layers were calibrated in buffered saline solutions that ranged in pH from 5 to 10. In each case, the appropriate buffering species, i.e., phosphate, tris or bicarbonate, was at 10 mM and the desired ionic strength, e.g., 20, 150 or 300 mM, was made up with sodium chloride salt. Cuvettes containing sensor patches were equilibrated in each solution. For comparison 1 μM solutions of DHDS and HPTS also were prepared and tested over the same pH range.
Calibration curves for HPTS and MA-HPDS were fit to the following expression (25) describing intensity ratio (R) of monoprotic indicator dyes as a function of pH: R=([H^+]Rmax+ka,appRmin)/ka,app+[H^+] (1) where ka,app is the apparent dissociation constant of the immobilized dye. A least-squares linear regression was used to determine the parameters Rmin, Rmax and ka,app. The pka,app of the immobilized dye was calculated to be 7.61±0.05 for these conditions. This is in good agreement with the pka,app of HPTS in solution, which was calculated to be 7.72±0.02 under the same conditions.
The modified dye is sensitive over the same range as HPTS. The calibration curve for DHDS was fit to an expression similar to that for monoprotic acids, but for diprotic acids. The second hydroxyl group causes DHD to be sensitive over an extended range with two dissociation constants calculated to be pka1,app=7.03±0.02 and pka1,app=9.05±0.02 under these conditions.

The conditions of series [2]: cited from earlier work; for pKa: literature value.
For series [3] the following is noted: literature (11); cited from earlier work.

Results on 4 compounds are retold here after patent US7390462B2, “Ratiometric fluorescent pH sensor for non-invasive monitoring” (The University of Maryland Baltimore County, priority 2002, dated 2008).

Like-named read-outs stand apart in the source and are kept apart here.

Consider `O=S(=O)([O-])c1cc(S(=O)(=O)[O-])c2ccc3c(O)cc(O)c4ccc1c2c43.[Na+].[Na+]` [DHDS, 6,8-dihydroxy-1,3-pyrenedisulfonic acid disodium salt], for which, in series [1], the “pka1,app (first dissociation constant)” value came to 7.03±0.02 and the “pka1,app (second printed dissociation constant)” value is given as 9.05±0.02. Besides, the “second pKa” value in series [2] (literature value (9)) is listed as “approximately 8.5”.
Turning to `O=S(=O)([O-])c1cc(O)c2ccc3c(S(=O)(=O)[O-])cc(S(=O)(=O)[O-])c4ccc1c2c34.[Na+].[Na+].[Na+]` [HPTS, 8-hydroxy-1,3,6-pyrene trisulphonic acid trisodium salt], in series [3], the toxicity result is given as “low toxicity”. Besides, the results for the pKa in series [1] and in series [2] were 7.72 ± 0.02 and “approximately 7.3”, respectively.
As to `C=C(C)C(=O)Oc1cc(O)c2ccc3c(S(=O)(=O)O)cc(S(=O)(=O)O)c4ccc1c2c34` [MA-HPDS, 6-methacryloyl-8-hydroxy-1,3-pyrene disulfonic acid], the pKa in series [1] came to 7.61 ± 0.05.
For the compound `O=C1OC2(c3cc(Cl)c(O)cc3Oc3cc(O)c(Cl)cc32)c2ccccc21` [dichlorofluorescein], the pKa in series [2] is roughly 4.

In general, pKa refers to the negative logarithm of the acid dissociation constant.
